# Data published in patent US10934244B2, “Compounds for use in treating neuromuscular disorders” (NMD PHARMA A/S, priority 2015, dated 2021).
# How the values were obtained:
# [1] = tested on: isolated rat soleus muscles; experiment: Recovery of nerve-stimulated force in isolated rat soleus muscles exposed to sub-maximal tubocurarine; type: cell-based
# Procedure: (§1) Experiments were performed using rat soleus muscles from either young (4-wk-old) or adult Wistar rats (12-14-week-old). Animal handling, killing and isolation of muscle is described elsewhere^26 All experiments were performed using normal Krebs-Ringer bicarbonate solution^26 (NKR). In solutions with elevated Mg^2+, MgCl2 was added to NKR-solution causing minor increases in osmolarity and ionic strength. In solutions with elevated K^+, 4 mM NaCl was replaced by 4 mM KCl in the NKR.
# (§2) In all contraction experiments, isometric force production was determined and force produced during contractions was quantified by measuring the integral of the force response (AUC). Stimulation and force recordings have been described elsewhere^26. […] In these latter experiments, extracellular recordings of action potentials (M-waves) could be measured without temporal overlap with stimulation artefacts.
# To initially confirm that inhibition of ClC-1 ion channels can be used to recover contractile force in muscle with reduced neuromuscular transmission, isolated nerve-muscle preparations were first exposed to either tubocurarine (FIG. 2A) or elevated Mg^2+ (FIG. 2B) and then a specific ClC-1 inhibitor (9-AC) was added. […]
# isolated human muscles = type: cell-based; conditions: 150 μM C8; elevated K+ and TTX
# [2] = Pharmacokinetic analysis of a single I.P. dose in rats; type: in vivo; conditions: rat, ip, single I.P. dose 10 mg/kg, Sprague-Dawley rats, plasma
# Procedure: This part of the study was performed by Pipeline Biotech A/S (Spørring, Denmark). […] Plasma concentrations (free and bound) were determined by OnTarget Chemistry (Uppsala, Sweden, Project No.: PB243-001).
# Before conducting in vivo experiments with animal models of myasthenia gravis, some pharmacokinetic details were obtained for C8 in response to one-bolus I.P. injection.
# [3] = tested on: rats injected with MAB35 monoclonal antibody; experiment: Rotarod running performance in passive immunization model of myasthenia gravis (MAB35); type: in vivo, rat; conditions: compared to sham
# Procedure: FIG. 10. […] Prior to I.P. injection of MAB35 the animals had been familiarized to the rotarod over three training sessions distributed over two days. […] After this treatment performance was monitored every second hour. *Indicates significant different as evaluated using student t-test.
# (§3) In both series of experiments, running performance was tested on a rotarod using a protocol where the rod was accelerated gradually over a 5 min period, and the running time and covered distance before falling off the rod were measured.
# In experiments with MAB35, animals were first familiarized with the rotarod over two consecutive days and then injected I.P. with MAB35. After injection, rotarod performance was then again monitored regularly over the consecutive two days. […] A considerable number of animals, however, became moribund failing to walk and they had altered ventilation (rapid) and pronounced ptosis. These animals were not included in experiments.
# In the last series of experiments, myasthenia gravis was mimicked in rats by inducing an immunological reaction against the motor endplate of muscle fibers using monoclonal antibody against the nicotinic ACh receptor in muscle fibers. Again the animals had been familiarized to the rotarod before the MAB35 injection. […] From FIG. 10 it can be seen that upon injection sham treatment the performance further declined.
# [4] = tested on: rats injected with tubocurarine; experiment: Rotarod running performance of rats after I.P. tubocurarine (myasthenia like phenotype); type: in vivo, rat; conditions: C8 20 mg/kg I.P. 2 hrs before tubocurarine 0.13 mg/kg I.P.; tested 21 minutes after tubocurarine; sham around 2%
# Procedure: FIG. 9. […] A) illustrates the design of the experiments. Prior to Day One the animals had been familiarized to the rotarod in three training sessions distributed over two days.
# as §3
# Experiments with tubocurarine were carried out over two days, and on each day the effect of tubocurarine on running performance was tested. On the first day only tubocurarine was injected. […] On the second day, the animals were first allowed to run on the rotarod, and all animals performed normally. […] The allocation of the animals into the two groups (C8 or sham) was random and unknown to the experimenter (blinded experimental design).
# In the first series of in vivo experiments, myasthenia gravis was simply mimicked by I.P. injection of tubocurarine (0.13 mg/kg) in animals that had been familiarized to running on the rotarod. On the first of two consecutive days, tubocurarine was injected I.P. and the running performance of the animal was tested 21 minutes after this injection. On the second day of experimentation, the animals first performed a test run to ensure that they were no longer affected by the tubocurarine injected the day before. […]
# rat soleus muscles = type: cell-based; conditions: 10 and 25 μM, compared to control conditions; 1 μM μ-conotoxin GiiiB
# soleus muscles = experiment: Mg2+ concentration required to depress nerve-stimulated force by 50% (Kd,Mg2+), combination treatments; type: cell-based, rat; conditions: C8 combined with 3,4-diaminopyridine
# Procedure: FIG. 6. […] Muscles from 4-week-old rats were stimulated to contract by activating the motor nerve with short duration pulses in field stimulation. Muscles contracted every 10 min for 2 s in response to 30 Hz stimulation. Four different experimental conditions were used. […] C) similar to A) but this muscle had been pre-incubated with 3,4-AP. […] The force integral (AUC) was determined at each extracellular Mg^2+ concentration. AUC was plotted against Mg^2+ concentration and the data was fitted to a sigmoidal function (FIG. 6E). This provided the extracellular Mg^2+ concentration that was required to reduce the nerve-stimulated force to 50% (Mg50) under the four different conditions (see Table 5).
# While the use of tubocurarine mimics conditions with reduced neuromuscular transmission due to post-synaptic dysfunction (myasthenia gravis, neuromuscular blockade), the experiments with elevated extracellular Mg^2+ mimics conditions with pre-synaptic dysfunction akin to a range of neuromuscular disorders including Lambert Eaton syndrome^26, motor neuron disorders^6-9 and polyneuropathy^18, 19. […] Based on this it was determined whether recovery of nerve-stimulated force at elevated extracellular Mg^2+ with ClC-1 inhibiting compounds could be added to force recovery with 3,4-AP. […] To quantify the effect of compounds on Mg^2+ sensitivity the force at the different Mg^2+ concentrations was determined. […]
# [5] = tested on: isolated rat soleus muscles; experiment: Recovery of nerve-stimulated force in isolated rat soleus muscles at elevated extracellular Mg2+ (3.5 mM); type: cell-based; conditions: muscle at elevated Mg2+ (3.5 mM); FIG. 2B
# Procedure: as §1
# as §2, with “artefacts. […]” for “artefacts.”
# The next series of experiments determined whether the compounds that recovered nerve-stimulated force in the presence of tubocurarine could also recover nerve-stimulated force at elevated extracellular Mg^2+.
Compound,"nerve-stimulated force after addition of compound (in words) ([1]; 50 μM added after 40 min in tubocurarine, FIG. 3A)",contractile force (isolated human muscles),AUC(0-t) [2],C0 [2],Cmax [2],AUC(0-inf) ([2]; read-out: AUC 0-inf_obs),half-life ([2]; read-out: t½ (converted)),rotarod running performance after injection ([3]; 20 mg/kg C8 I.P.),rotarod running performance after injection ([3]; 30 mg/kg C8 I.P.),increase in running distance on second day compared to first day [4],EPP amplitude (rat soleus muscles),effect of combination on recovery of neuromuscular transmission (soleus muscles),recovery of force and M-wave signal [5],"recovery of force and M-wave signal ([1]; muscle exposed to tubocurarine, FIG. 2A)"
"C[C@H](Oc1ccc(Br)cc1)C(=O)O [Compound C8, (2S)-2-(4-bromophenoxy)propanoic acid]",recovered markedly,markedly recovery,204 µg·h/mL,24500 ng/mL,44600 ng/mL,205 µg·h/mL,3.7 h,decline was reduced,clear recovery of performance,around 150%,significantly larger EPPs,unexpected synergistic effect,,
"O=C(O)c1c2ccccc2cc2ccccc12 [Compound 9-AC, reference compound]",,,,,,,,,,,,,marked recovery of both force and M-wave signal,marked recovery of both force and M-wave signal
